# According to patent US8859615B2, “Compounds, compositions and methods for reducing toxicity and treating or preventing diseases” (priority 2008, dated 2014):
# Test system: human mammary carcinoma MX-1 cells
# Experiment: In vitro drug combination (median-effect / combination index, DRI) against MX-1 cell growth (Tables 5, 5A)
# Assay type: cell-based
# Method: The data in Tables 2X, 3A-E, 4, 5, and 6 were obtained using the cell counting kit-8 (CCK-8) tetrazolium assay in a 96-well microplate. Five to seven concentrations of each compound in triplicate were used, and the IC50 values were determined by CompuSyn software automation (Chou T C. and Martin N. ComboSyn, Inc., 2006) based on the median-effect equation and plot (Chou T C. J. Theor. Biol. 59:235-276, 1976; Chou T C. Pharmacol. Rev. 58: 621-681, 2006). […] The r value defines the correlation coefficient of the median-effect plot which signifies the conformity to the mass-action law principle (Chou T C. J. Theor. Biol. 59:235-276, 1976; Chou T C. Pharmacol. Rev. 58:621-681, 2006). These parameters were determined by CompuSyn simulation (available at http://www.combosyn.com).
# Efficacy of panaxytriol in combination with Fludelone (an illustrative tubulin-binding anticancer agent) was measured according to procedures described in more detail by Chou et al. (1984) Adv. Enz. Regul., 22:27-55, Chou et al. (1994) Nat'l Cancer Inst., 86:1517-1524, and Chou (2006) Pharmacological Reviews, […]:621-681. Software packages used for data analyses were CalcuSyn for Windows (Chou and Hayball., Multiple-drug dose effect analyzer and manual, Biosoft, Cambridge Place, Cambridge, U.K (1996)) and CompuSyn for Drug Combinations (Chou and Martin, Software for determination of synergism and antagonism and determination of IC50, ED50 and LD50, ComboSyn Inc., Paramus, N.J. (2005)). The entire contents of each of the above references are incorporated by reference in their entireties. […] DRI quantitates synergy as how many fold less of a dose is required to obtain a given level of effect for a combination of drugs versus the same effect for an individual component of the combination.
# [1] = Table 5, fold dose reduction allowed in the Panaxytriol + Fludelone combination
smiles,measurement,setting,value
C=C[C@@H](O)C#CC#CC[C@@H](O)[C@H](O)CCCCCCC [panaxytriol],IC50,"Homo sapiens, MX1, 72 h, read-out: Dose-effect parameter Dm (IC50)",3.19 µM
same,Dose-Reduction Index (DRI) at IC50,[1],2.66
same,Dose-Reduction Index (DRI) at IC75,[1],2.12
same,Dose-Reduction Index (DRI) at IC90,[1],1.70
same,Dose-Reduction Index (DRI) at IC95,[1],1.46
same,dose-reduction index (DRI),"panaxytriol + Fludelone combination, MX-1 cells",1.46-2.7
